Source: US20260102407A1, “TREATMENT METHODS” (priority 2020, published 2026)

How the values were obtained:
[1] = tested on: plasma levels of IL-1β, IL-2, IL-6, IL-4, IL-10; assay: Collagen antibody-induced arthritis, plasma cytokine levels; format: in vivo, mouse; conditions: CAIA mice; 30 mg/kg
VCAM-1 = assay: Collagen antibody-induced arthritis, hind limb immunohistochemistry for VCAM-1; format: in vivo, mouse; conditions: CAIA mice; Day 14 hind limbs
Procedure: Collagen antibody-induced arthritis. Arthritis was induced in female Balb/c mice (6-8 week-old) as previously described with a commercially obtained cocktail of 5 monoclonal antibodies to type II collagen at 2 mg/mouse (Chondrex, Inc. Redmond, WA) followed by LPS (50 μg/mouse) with or without BT2 (3 or 30 mg/kg mouse) in DMSO vehicle was administered i.p. on Day 3. Hind footpad thickness was measured on Day 9 using digital calipers. Mice were sacrificed on Day 14 and microCT scanning of hind limbs was performed.
Immmunohistochemical staining of hind limbs for VCAM-1 and ICAM-1 and analysis. Formalin-fixed, paraffin embedded of hind limbs were sectioned (5 μm). Dako EnVision Rabbit Kit (cat. K4011, Dako) was used for immmunohistochemical staining for VCAM-1 and ICAM-1. […] Integrated optical density (IOD) of positive staining in ankle joint (tibia and talus) articular cartilage was assessed for VCAM-1 and ICAM-1 using Image-Pro Plus software (Cybernetics, Bethesda, MD, USA). Area (μm^2) of ankle joint articular cartilage was measured using Image-Pro Plus software. Total cell number and positive staining cell number in ankle joint articular cartilage were counted manually using Image-Pro Plus software. […]

AP-1 response element = AP-1 response element Firefly luciferase high-throughput screen in 293/AP-1-luc cells; format: cell-based, human; conditions: 11-point titration curves; TPA-induced 293/AP-1-luc cells
Excerpt: High-throughput screen of compound library. Hits were selected from the ˜100,000 compound Lead Discovery Library at the HTS Facility at Walter & Eliza Hall Institute of Medical Research (WEHI, Bundoora, Vic) with a commercially-available human embryonic kidney (HEK)-293 cell-based assay in 384-well microtitre plates in which Firefly luciferase was driven by multiple copies of the AP-1 response element (293/AP-1-luc cells, Panomics, Fremont, CA). Briefly, the cell-based assay involved plating 5×10^3 cells into 384-well plates in DMEM, pH 7.4 containing 10% FBS. After ˜18 h, the cells were induced with 10 ng/ml […] (TPA) (Sigma, St Louis, MO) in the absence or presence of test compound, then after ˜18 h, luciferase activity was measured using a luminometer. The hit rate of the primary screen was 2.4%. […] A substructure filter was then applied to remove pan-assay interference compounds (Baell, J. B., et al., J Med Chem 53, 2719-2740 (2010)) and using the most stringent filtering criteria 256 hits were selected for further study. After dose response testing, 24 compounds with molecular weight <400 Da were reordered from suppliers and tested in secondary assays.

CD31 = assay: Matrigel plug assay, CD31 staining; format: in vivo; conditions: C57BL/6 mice; 2.5 mg/mouse in plug with VEGF-A165 and heparin; 7 days
Procedure: Matrigel plug assay. Matrigel (500 μl) containing VEGF-A165 (100 ng/ml), heparin (10U) and BT2 or BT3 (2.5 mg/mouse) or its vehicle (saline containing 0.01% DMSO and 0.5% Tween 80) was injected subcutaneously into the left flanks of male 8 week-old C57BL/6 mice. After 7d the mice were sacrificed by CO2 asphyxiation and the plugs carefully removed. Formalin-fixed paraffin embedded sections were prepared from Matrigel plugs for immunohistological assessment. Heat-induced epitope retrieval was applied to all deparaffinized sections (4 μm Superfrost slides) in citrate buffer, pH 6 for 5 min at 110° C. Immunostaining for all groups with a given antibody was performed simultaneously and development time was identical. […]
Slides were scanned using an Aperio ScanScope XT slide scanner (Leica Biosystems, Mt Waverley, Vic Australia) and images captured using ImageScope software (Leica Biosystems). Positive intraplug staining was assessed using Image-Pro Plus software (Cybernetics, Bethesda, MD) in 5-12 randomly selected fields of view for each plug photographed under 10× (CD31), 20× (VCAM-1) and 40× (FosB) objectives and expressed as integrated optical density (IOD, the product of calibrated intensity (optical density) and area, i.e. IOD=intensity (mean)×area) (Media Cybernetics) (Liu, H., et al., Sci Rep 6, 21319 (2016)). […]

BAEC = assay: Endothelial dual chamber migration assay toward VEGF-A165; format: cell-based, bovine; conditions: 1 μM; Transwell; 10% FBS and 50 ng/ml VEGF-A165 in lower chamber; 24 h
Procedure: Endothelial dual chamber migration assay. BAEC (6×10^3 cells/well) suspended in DMEM supplemented with 10% FBS were seeded into the upper chamber of 24-well plates fitted with Millicell cell culture inserts (cat. PI8P01250, Millipore). After 48 h, the medium was changed to DMEM supplemented with 0.01% FBS and the cells were incubated for 48 h. Compounds prepared in DMEM containing 0.01% FBS were added to the upper chamber. VEGF-A165 (50 ng/ml, Sigma, cat. V7259) in medium containing 10% FBS was added to the lower chamber. After 24 h, medium from the upper chamber was removed and a cotton swab was used to remove non-migrated cells and excess liquid. The insert was placed in 70% ethanol for 10 min to allow cell fixation and membranes were dried for 10-15 min. Filters were excised and placed on slides. Mounting medium (Fluoroshield™ with DAPI, Sigma, cat. 6057) was added and specimens were visualized using an EVOS FL microscope.

SMILES | plasma level of IL-1β [1] | plasma level of IL-2 [1] | plasma level of IL-4 [1] | plasma level of IL-6 [1] | plasma level of IL-10 [1] | VCAM-1 expression in bone (VCAM-1) | IC50, AP-1 luciferase screen (AP-1 response element) | new blood vessel formation (CD31 staining) in Matrigel plugs (CD31) | migration of BAEC toward VEGF-A165 (BAEC)
CCOC(=O)Nc1ccc2c(c1)C(=O)N(CC)c1ccccc1O2 [BT2, (10-ethyl-11-oxo-10,11-dihydro-dibenzo[b,f][1,4]oxazepin-2-yl)-carbamic acid ethyl ester] | reduced plasma levels of IL-1β, IL-2 and IL-6 to normal levels | reduced plasma levels of IL-1β, IL-2 and IL-6 to normal levels | did not change | reduced plasma levels of IL-1β, IL-2 and IL-6 to normal levels | did not change | inhibit VCAM-1 and ICAM-1 expression | micromolar or submicromolar range | suppressed new blood vessel formation | inhibited migration
CCN1C(=O)c2cc(N)ccc2Oc2ccccc21 [BT3, 2-amino-10-ethyldibenzo[b,f][1,4]oxazepin-11 (10H)-one] |  |  |  |  |  |  |  | no effect | neither BT3, nor PD98059 (allosteric MEK inhibitor), imatinib (tyrosine kinase inhibitor) or tofacitinib (Janus kinase inhibitor) had an inhibitory effect
